Experimental data published in US10792289B2 (Horizon Orphan LLC, priority 2009, dated 2020).

Test system: stable CF patients
Assay: Phase 2 study: CFQ-R questionnaire
Type: in vivo, human
Conditions: for CFQ-R respiratory, mean change from baseline: MITT, Baseline to Day 28
Procedure: The following dosage regimens (as nebulizer loaded doses) were evaluated: 120 mg QD (daily); 240 mg QD (daily); and 240 mg BID (twice daily).
Patients were assessed on Day 1, 7, 14, and 28, and then up to 28 days after completion of study drug, namely, Days 42 and 56. The end of the study was defined as the last visit of the last patient.
Efficacy was evaluated by microbiologic assessment of sputum samples, time to need for anti-pseudomonal antimicrobials, the Cystic Fibrosis Questionaire-Revised (CFQ-R), and pulmonary function tests. […] Pair-wise comparisons between all the treatment arms were conducted as secondary analyses.
Patients completed the CFQ-R questionnaire with domains that included: respiratory, body image, digestion, eating, emotion, health perception, physical, role/school, social, treatment burden, vitality, and weight.

[1] = MITT population, 240 mg BID vs Placebo, baseline to visit 4
[2] = MITT population, 240 mg BID, baseline to visit 4
[3] = MITT population, Combined 240 mg QD and BID

SMILES: C[C@H]1COc2c(N3CCN(C)CC3)c(F)cc3c(=O)c(C(=O)O)cn1c23 [Levofloxacin, levofloxacin]
- Respiratory domain of CFQ-R, Day 28, Median (MITT population, 120 mg QD): 66.7
- Respiratory domain of CFQ-R, Change from Baseline to Day 14, Mean (MITT population, 240 mg BID): 7.5
- Respiratory domain of CFQ-R, Change from Baseline to Day 14, Median (MITT population, 240 mg BID): 5.6
- Respiratory domain of CFQ-R, Change from Baseline to Day 28, Mean (MITT population, 240 mg BID): 3.0
- Respiratory domain of CFQ-R, Change from Baseline to Day 28, Median (MITT population, 240 mg BID): 0.0
- Respiratory domain of CFQ-R, Day 1, Mean (MITT population, 240 mg BID): 60.5
- Respiratory domain of CFQ-R, Day 1, Median (MITT population, 240 mg BID): 61.1
- Respiratory domain of CFQ-R, Day 14, Mean (MITT population, 240 mg BID): 68.4
- Respiratory domain of CFQ-R, Day 14, Median (MITT population, 240 mg BID): 72.2
- Respiratory domain of CFQ-R, Day 28, Mean (MITT population, 240 mg BID): 64.4
- Respiratory domain of CFQ-R, Day 28, Median (MITT population, 240 mg BID): 72.2
- CFQ-R Body Image, LS Mean Difference [1]: −0.25
- CFQ-R Digestion, LS Mean Difference [1]: 2.46
- CFQ-R Eating, LS Mean Difference [1]: 5.70
- CFQ-R Emotion, LS Mean Difference [1]: −0.09
- CFQ-R Health Perception, LS Mean Difference [1]: 2.58
- CFQ-R Physical, LS Mean Difference [1]: 5.94
- CFQ-R Respiratory, LS Mean Difference [1]: 4.50
- CFQ-R Role/School, LS Mean Difference [1]: −0.53
- CFQ-R Social, LS Mean Difference [1]: 2.37
- CFQ-R Treatment Burden, LS Mean Difference [1]: 0.06
- CFQ-R Vitality, LS Mean Difference [1]: 3.11
- CFQ-R Weight, LS Mean Difference [1]: 5.4
- CFQ-R Body Image, LS Mean Change from Baseline [2]: 0.34
- CFQ-R Digestion, LS Mean Change from Baseline [2]: 1.11
- CFQ-R Eating, LS Mean Change from Baseline [2]: 2.41
- CFQ-R Emotion, LS Mean Change from Baseline [2]: 2.22
- CFQ-R Health Perception, LS Mean Change from Baseline [2]: 0.52
- CFQ-R Physical, LS Mean Change from Baseline [2]: 3.14
- CFQ-R Respiratory, LS Mean Change from Baseline [2]: 4.06
- CFQ-R Role/School, LS Mean Change from Baseline [2]: −1.94
- CFQ-R Social, LS Mean Change from Baseline [2]: 0.69
- CFQ-R Treatment Burden, LS Mean Change from Baseline [2]: −0.93
- CFQ-R Vitality, LS Mean Change from Baseline [2]: 1.23
- CFQ-R Weight, LS Mean Change from Baseline [2]: 10.06
- Respiratory domain of CFQ-R, Change from Baseline to Day 14, Mean (MITT population, 240 mg QD): 1.4
- Respiratory domain of CFQ-R, Change from Baseline to Day 14, Median (MITT population, 240 mg QD): 0.0
- Respiratory domain of CFQ-R, Change from Baseline to Day 28, Mean (MITT population, 240 mg QD): 0.3
- Respiratory domain of CFQ-R, Change from Baseline to Day 28, Median (MITT population, 240 mg QD): 0.0
- Respiratory domain of CFQ-R, Day 1, Mean (MITT population, 240 mg QD): 61.3
- Respiratory domain of CFQ-R, Day 1, Median (MITT population, 240 mg QD): 61.1
- Respiratory domain of CFQ-R, Day 14, Mean (MITT population, 240 mg QD): 63.0
- Respiratory domain of CFQ-R, Day 14, Median (MITT population, 240 mg QD): 66.7
- Respiratory domain of CFQ-R, Day 28, Mean (MITT population, 240 mg QD): 61.6
- Respiratory domain of CFQ-R, Day 28, Median (MITT population, 240 mg QD): 66.7
- Respiratory domain of CFQ-R, Change from Baseline to Day 14, Mean [3]: 4.5
- Respiratory domain of CFQ-R, Change from Baseline to Day 14, Median [3]: 5.5
- Respiratory domain of CFQ-R, Change from Baseline to Day 28, Mean [3]: 1.7
- Respiratory domain of CFQ-R, Change from Baseline to Day 28, Median [3]: 0.0
- Respiratory domain of CFQ-R, Day 1, Mean [3]: 60.9
- Respiratory domain of CFQ-R, Day 1, Median [3]: 61.1
- Respiratory domain of CFQ-R, Day 14, Mean [3]: 65.8
- Respiratory domain of CFQ-R, Day 14, Median [3]: 69.4
- Respiratory domain of CFQ-R, Day 28, Mean [3]: 63.0
- Respiratory domain of CFQ-R, Day 28, Median [3]: 66.7
- CFQ-R respiratory, mean change from baseline (120 mg QD): 0.3 units
- CFQ-R respiratory, mean change from baseline (240 mg BID): 1.7 units
- CFQ-R respiratory, mean change from baseline (240 mg QD): 3.0 units
